Where a name gives a salt, the structure may show the parent alone.
Legend:
[1] = tested on: Oct-4 gene expression, BJF cells; assay: Small molecules, Oct-4 gene expression by qRT-PCR (Table III), BJF; format: cell-based, human
Description: (§1) Cell culture. Human dermal fibroblasts were purchased from Cell Applications (San Diego, Calif.), and were maintained at 37° C. in 95% humidity and 5% CO2 in Fibroblast growth medium (Cell Applications, San Diego, Calif.).
(§2) Quantitative RT-PCR. Expression of Oct-4 was determined by real-time RT-PCR. Briefly, total RNA was prepared from cultures using Trizol Reagent (Life Technologies, Gaithersburg, Md.) and RNeasy Mini kit (Qiagen; Valencia, Calif.) with DNase I digestion according to manufacturer's protocol. Total RNA (1 μg) from each sample was subjected to oligo(dT)-primed reverse transcription (Invitrogen; Carlsbad, Calif.). Real-time PCR reactions will be performed with PCR master mix on a 7300 real-time PCR system (Applied Biosystems; Foster City, Calif.). For each sample, 1 μl of diluted cDNA (1:10) will be added as template in PCR reactions. The expression level of Cot-4 was normalized to glyceraldehyde 3-phosphate-dehydrogenase (GAPD).
Table III provides the effects of small molecule inhibitors on Oct-4 gene expression in human somatic cells. mRNA levels were determined by real time qRT-PCR and normalized with GAPDH. The abbreviations are as follows: HDACi (histone deacetylase inhibitor DNMTi (DNA methyltransferase inhibitor); SIRTi (sirtuin, Class III HDAC inhibitor); LdeMi (lysine demethylase inhibitor); SIRT1a (sirtuin 1 activator); TSAi (trichostatin A inhibitor); HDMi/LSD1i (histone demethylase inhibitor/Lysine demethylase 1 inhibitor).

[2] = tested on: Oct-4 gene expression, adult human dermal fibroblasts (HDFa); assay: Small molecules, Oct-4 gene expression by qRT-PCR (Table III), HDFa; format: cell-based
Description: as §1, §2
The abbreviations are as follows: HDACi (histone deacetylase inhibitor DNMTi (DNA methyltransferase inhibitor); SIRTi (sirtuin, Class III HDAC inhibitor); LdeMi (lysine demethylase inhibitor); SIRT1a (sirtuin 1 activator); TSAi (trichostatin A inhibitor); HDMi/LSD1i (histone demethylase inhibitor/Lysine demethylase 1 inhibitor).

[3] = tested on: Oct-4 gene expression, HLFa; assay: Small molecules, Oct-4 gene expression by qRT-PCR (Table III), HLFa; format: cell-based, human; conditions: dose 500 uM, Rx Time 5
[4] = tested on: Oct-4 protein, fetal human dermal fibroblasts (HDFf); assay: Immunohistochemistry of Oct-4 protein in shRNA-infected cells; format: cell-based; conditions: versus uninfected control
Description: Cell culture. Fetal human dermal fibroblasts were purchased from Cell Applications (San Diego, Calif.), and were maintained at 37° C. in 95% humidity and 5% CO2 in Fibroblast growth medium (Cell Applications, San Diego, Calif.).
Lentiviral Infection. Fetal human dermal fibroblasts were infected with one of the following compositions: (1) shRNA lentivirus directed to DNMT1; (2) shRNA lentivirus directed toward HDAC7; (3) shRNA lentivirus directed toward DNMT1 and HDAC7; and (4) shRNA lentivirus directed toward HDAC7a and HDAC11. The shRNA construct was obtained from Dharmacon. The shRNA construct directed toward HDAC7a had the following sequence:
(§3) The human dermal fibroblasts were infected with the shRNA following the manufacturer's instructions. HDF were cultured with an without puromycin selection and hES culture conditions (mTeSR Medium, Stem Cell Technology, Vancouver, BC, Canada) on matrigel (BD Biosciences, San Jose Calif.).
Immunohistochemistry. For immunohistochemistry, target shRNA-infected and control cells were grown on chambered slides (LabTek, Napersville, Ill.). Cells were then be fixed with 4% paraformaldehyde, and incubated with a specific antibody directed against pluripotency marker Oct3/4 (Abeam, Cambridge, Mass.) following the manufacturer's protocol. Staining of Oct3/4 was visualized as a red color. […]

[5] = tested on: Sox-2 protein, fetal human dermal fibroblasts (HDFf); assay: Immunohistochemistry of Sox-2 protein in shRNA-infected cells; format: cell-based; conditions: versus uninfected control
[6] = tested on: HDAC genes and SIRT genes mRNA, human dermal fibroblasts; assay: HDAC7 shRNA lentiviral infection, RT-PCR of HDAC and SIRT genes (FIG. 7); format: cell-based
Text: (§4) Human dermal fibroblasts (HDFa, HDFn, and HDFf) were infected with shRNA lentivirus to interfere with HDAC7. In a separate set of experiments, human dermal fibroblasts (HDFa, HDFn, and HDFf) were infected with shRNA lentivirus to interfere with HDAC11. RNA was isolated from HDFs (including puromycin selection) and applied to RT-PCR to analyze expression of target genes, e.g., Oct-4, Nanog, Sox2, various HDACs and various SIRT genes. The shRNA construct included puromycin (antibiotic) resistance as a way to select cells that have been successfully transfected with the shRNA. After transfection, puromycin was added to the culture and cells that were not resistant (therefore not transfected) died, thereby leaving only transfected cells remaining in the culture.
as §1
(§5) Lentiviral Infection. Human dermal fibroblasts were infected with a shRNA construct. The shRNA construct was obtained from Dharmacon. The shRNA construct directed toward directed toward HDAC7a had the following sequence:
The human dermal fibroblasts were infected with the shRNA following the manufacturer's instructions. […]
Quantitative RT-PCR. Expression of Oct-3/4 and Nanog was determined by real-time RT-PCR. […]

[7] = tested on: Oct-4, Nanog, Sox-2 mRNA, human dermal fibroblasts (HDFa, HDFn, HDFf); assay: HDAC7 or HDAC11 shRNA lentiviral infection, RT-PCR of Oct-4, Nanog, Sox-2 mRNA; format: cell-based
Text: as §4, §1, §5
as §3, with “Calif.). In these sets of experiments, cells were infected with a shRNA construct directed toward either HDAC7, or HDAC11.” for “Calif.).”
as §2, with “Oct-3/4 and Nanog” for “Oct-4”, “DNase” for “DNase I”, “Oct-3/4 and Nanog” for “Cot-4”

[8] = tested on: HDAC7a and HDAC11 expression, human dermal fibroblasts (HDFa, HDFn, HDFf); assay: HDAC7a shRNA effect on expression of HDAC7a and HDAC11, RT-PCR; format: cell-based
Description: as §1
Lentiviral Infection. Human dermal fibroblasts were infected with a shRNA construct. The shRNA construct was obtained from Dharmacon. The shRNA construct directed toward HDAC7a had the following sequence:
as §3
as §2, with “HDAC7a and HDAC11” for “Oct-4”, “The expression level of Cot-4 was normalized to glyceraldehyde 3-phosphate-dehydrogenase (GAPD).” left out

**Q.** With `NC1CC1c1ccccc1` (centres unmarked) [2-PCPA] as the compound, how does the “Oct4 FC” value ([1]; dose 1 mM, Rx Time 8) read?
**A.** <2

**Q.** How did the “Oct4 FC” value ([2]; dose 50 uM, Rx Time 4) turn out when `O=C(O)CCCCC1CCSS1` (stereo not drawn) [ALA, Alpha-lipoic acid] was run?
**A.** 3.5

**Q.** With `O=C(O)CCCC[C@@H]1SC[C@@H]2NC(=O)N[C@@H]21` [Biotin] as the compound, how does the “Oct4 FC” value ([2]; dose 500 uM, Rx Time 4) read?
**A.** <2

**Q.** For `Nc1ccccc1NC(=O)CCCCCCC(=O)Nc1ccccc1` [CAY 10433], which “Oct4 FC” value ([2]; dose 50 uM, Rx Time 4) is on record?
**A.** <2

**Q.** `O=C(O[C@@H]1Cc2c(O)cc(O)cc2O[C@@H]1c1cc(O)c(O)c(O)c1)c1cc(O)c(O)c(O)c1` [EGCG] was tested. Which “Oct4 FC” value ([1]; dose 1 uM, Rx Time 4) did it give?
**A.** <2

**Q.** How did the “Oct4 FC” value ([2]; dose 50 uM, Rx Time 4) turn out when `NC(=O)C1CCCc2c1[nH]c1ccc(Cl)cc21` (centres unmarked) [EX-527] was run?
**A.** 2

**Q.** For `NNc1nncc2ccccc12` [Hydralazine HCL], which “Oct4 FC” value ([2]; dose 500 uM, Rx Time 2) is on record?
**A.** <2

**Q.** For `O=C(c1ccc(Cl)cc1Cl)n1nnc2ccccc21` [ITSA], which “Oct4 FC” value ([2]; dose .05 mM, Rx Time 4) is on record?
**A.** <2

**Q.** With `NC(=O)c1cccnc1` [Nicotinamide] as the compound, how does the “Oct4 FC” value ([2]; dose .028 mM, Rx Time 4) read?
**A.** 2.3

**Q.** `CCN(CC)CCOC(=O)c1ccc(N)cc1` [Procaine HCL] was tested. Which “Oct4 FC” value ([2]; dose 500 uM, Rx Time 8) did it give?
**A.** <2

**Q.** For `O=C(NCCSSCCNC(=O)/C(Cc1ccc(O)c(Br)c1)=N/O)/C(Cc1ccc(O)c(Br)c1)=N/O` [Psammaplin-A], which “Oct4 FC” value ([1]; dose 1.5 mM, Rx Time 7) is on record?
**A.** 2.2

**Q.** Which “Oct4 FC” value [3] does the source give for `O=C(O)C(Cc1c[nH]c2ccccc12)N1C(=O)c2ccccc2C1=O` (centres unmarked) [RG108] here?
**A.** <2

**Q.** How did the “Oct4 FC” value ([1]; dose 2.5 mM, Rx Time 4) turn out when `Cn1cc(C2=C(c3cn(CCCSC(=N)N)c4ccccc34)C(=O)NC2=O)c2ccccc21` [RO-31-8220] was run?
**A.** <2

**Q.** For `Oc1ccc(C=Cc2cc(O)cc(O)c2)cc1` [Resveratrol], which “Oct4 FC” value ([1]; dose .5 mM, Rx Time 4) is on record?
**A.** <2

**Q.** How did the “Oct4 FC” value ([2]; dose 500 uM, Rx Time 4) turn out when `COCCCn1c(N)c(C(=O)NC2CCCC2)c2nc3ccccc3nc21` [SIRT1 Activator 3] was run?
**A.** 2

**Q.** `CC(NC(=O)c1ccccc1/N=C/c1c(O)ccc2ccccc12)c1ccccc1` (centres unmarked) [Sirtinol] was tested. Which “Oct4 FC” value ([1]; dose .05 mM, Rx Time 7) did it give?
**A.** <2

**Q.** How did the “Oct4 FC” value ([2]; dose .5 mM, Rx Time 4) turn out when `O=C1CCc2c(ccc3ccccc23)O1` [Splitomycin] was run?
**A.** 2

**Q.** With `N[C@@H]1C[C@H]1c1ccccc1` [Tranylcypromine] as the compound, how does the “Oct4 FC” value ([2]; dose 2.5 mM, Rx Time 4) read?
**A.** 2.7

**Q.** How did the “Oct4 FC” value ([1]; dose .05 mM, Rx Time 6) turn out when `O=c1ncccn1[C@@H]1O[C@H](CO)[C@@H](O)[C@H]1O` [Zebularine] was run?
**A.** <2

**Q.** Which results are given for “DNMT1 shRNA: shRNA construct directed toward DNMT1, SEQ ID NO. 4: GTCTACCAGATCTTCGATA (listed as Homo Sapiens)”?
**A.** Oct-4 protein expression [4]: clearly increased; Sox-2 protein expression [5]: only a modest amount

**Q.** Which “Oct4 FC” value ([2]; dose 50 uM, Rx Time 4) does the source give for Depudecin here?
**A.** <2

**Q.** For “HDAC7 shRNA: shRNA lentiviral construct from Dharmacon directed toward HDAC7a, SEQ ID NO. 1: GCTTTCAGGATAGTCGTGA (shRNA lentiviral construct)”, which “level of HDAC7 mRNA reduced” value ([6]; around three days after lentiviral infection) is on record?
**A.** about 50 % of basal level

**Q.** And the “expression of HDAC 9, HDAC5 and HDAC11 mRNA” value ([6]; three days after HDAC7 shRNA infection)?
**A.** inducted

**Q.** And the “level of mRNA for the gene Oct-4” value ([7]; HDFa and HDFn, presence and absence of puromycin, compared to Nanog)?
**A.** more modest increase

**Q.** What about the “expression of Nanog increased over time” value ([7]; HDFa and HDFn, with and without puromycin selection) of the same compound?
**A.** at least six-fold

**Q.** What about the “level of mRNA for the gene Nanog” value ([7]; HDFa, HDFn and HDFf, presence and absence of puromycin) of the same compound?
**A.** increased

**Q.** And the “level of mRNA for the gene Nanog” value ([7]; HDFf, compared with HDFa and HDFn)?
**A.** not as robustly

**Q.** What about the “level of mRNA for the Sox-2 gene” value ([7]; fetal human dermal fibroblasts (HDFf)) of the same compound?
**A.** No induction

**Q.** What about the Oct-4 protein expression [4] of the same compound?
**A.** minimal detection

**Q.** What about the “expression of HDAC7a” value [8] of the same compound?
**A.** decreased

**Q.** What about the “expression of HDAC11” value ([8]; presence and absence of puromycin) of the same compound?
**A.** increased

**Q.** And the Sox-2 protein expression [5]?
**A.** minimal protein expression

**Q.** How did the “Oct4 FC” value ([2]; dose 2.5 mM, Rx Time 4) turn out when Na Phenylbutyrate was run?
**A.** 2.5

**Q.** How did the “Oct4 FC” value ([2]; dose .5 mM, Rx Time 4) turn out when Valproxam was run?
**A.** <2

— patent publication US20110059526A1, “REPROGRAMMING A CELL BY INDUCING A PLURIPOTENT GENE THROUGH USE OF AN HDAC MODULATOR” (NUPOTENTIAL, INC., priority 2008, published 2011)
